Patent US10041105B2, “Methods and devices for detection of resistance to an enzyme inhibitor” (priority 2014, dated 2018)

Assays:
[1] = target: New Deli Metallo-beta lactamase (NDM-2) (Klebsiella pneumoniae, UniProt C7C422, P28A); assay: Beta lactamase luminescent assay with inhibitor reagent mixes; format: biochemical; settings: 64 micrograms/mL in 2× mix, lysate dilution 1:2
Method: (§1) The reagent mix was prepared as a 2× concentrated solution. The 2× concentrated reagent mix contained 50 mM HEPES (pH 7.0 to 7.2), 0.2 mM ZnCl2, 8 mM ATP, 10 mM DTT, 0.1 mM Coenzyme A, 5 micrograms/mL luciferase, 0.01 mM Cephalosporin-O-Luciferin, 0.1 mg/mL BSA, 8 mM CaCl2, 30 mM MgCl2, and 1% Triton X-100. Cephalosporin-O-Luciferin was used as a beta lactamase substrate. This substrate was synthesized and purified according to a procedure published in a scientific article (Angew. Chem. Int. Ed. 2007 Vol. 46, pp. 7031-7034), which is cited here solely as a reference.
(§2) Genes encoding five species of beta lactamase were synthesized and cloned into an E. coli expression vector. The E. coli cells transformed with the expression vector containing the gene encoding a beta lactamase was induced to express the enzyme. The cells were then pelleted, suspended in a sample buffer (Fisher Scientific Cat. No. 90084) and sonicated to lyse the cells.
(§3) 2× concentrated reagent mixes were prepared. The 2× reagent mix without a beta lactamase inhibitor or antibiotic (Reagent Mix I) was prepared according to the composition provided in Example 6. The 2× concentrated reagent mix containing a beta lactamase inhibitor or imipenem (Reagent Mix IIb) was prepared by supplementing the Reagent Mix I with 64 micrograms/mL of clavulanate (Reagent Mix IIa) or 64 micrograms/mL of imipenem (Reagent Mix IIb).
(§4) Reactions were carried out by diluting 50 microliters of 2× reagent mixes into 45 microliters of deionized water, followed by addition of 5 microliters of cell lysate. […] Light signal was measured using a luminometer after 15 min incubation at room temperature. The signal in Reagent Mix I was used to detect the presence of beta lactamase in the sample by comparing the signal in the reaction to that of negative controls while the signal ratio was used to determine the resistance of the beta lactamase to clavulanate or imipenem.
(§5) In this example, the signal ratios were expressed as R-Factor values, which were calculated as follows: R-Factor=10×(Reagent Mix II Signal÷Reagent Mix I Signal)

TEM-2 beta lactamase = TEM-2 beta lactamase (Escherichia coli, UniProt P62593, Q37K); assay: as above; format: biochemical
Method: as §1, §2, §3, §4, §5

KPC-2 beta lactamase = KPC-2 beta lactamase (Klebsiella pneumoniae, UniProt Q9F663); assay: as above; format: biochemical; settings: 64 micrograms/mL in 2× mix, lysate dilution 1:10
Chain of KPC-2 beta lactamase (Q9F663 25-293 limits assumed): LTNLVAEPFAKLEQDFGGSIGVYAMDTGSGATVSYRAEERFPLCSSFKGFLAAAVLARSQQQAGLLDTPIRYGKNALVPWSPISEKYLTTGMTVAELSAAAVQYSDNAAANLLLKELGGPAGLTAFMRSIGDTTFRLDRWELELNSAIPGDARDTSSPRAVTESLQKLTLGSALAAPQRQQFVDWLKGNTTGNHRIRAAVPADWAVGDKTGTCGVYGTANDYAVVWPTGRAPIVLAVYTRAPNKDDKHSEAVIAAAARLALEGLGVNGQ
Method: as §1, §2, §3, §4, §5

[2] = test system: beta lactamase of patient isolate colony; assay: Clavulanate resistance using a single bacterial colony
Method: (§6) As described in EXAMPLE 7, the assay consisted of two reagents, Reagent Mix I and Reagent Mix II, where Reagent Mix I contained one master mix without clavulanate while Reagent Mix II contained a master mix with clavulanate. In this example, reagent mixes equivalent to 0.25 mL of the master mixes were lyophilized in test tubes.
(§7) Patient samples were cultured overnight on an agar plate. A single colony was suspended in 2.5 mL sample buffer as described in EXAMPLE 7, of which 0.25 mL was added to Reagent Mixes I and II vials. After incubation at room temperature for 15 min, the reagent vials were inserted into a luminometer for signal measurement.

[3] = test system: beta lactamase of patient isolate colony; assay: as above; remark: listed apart in the source
Method: as §6, §7

[4] = test system: beta lactamase of patient isolate colony; assay: as above; remark: listed apart in the source
Method: as §6, §7

[5] = test system: beta lactamase of patient isolate colony; assay: as above; remark: listed apart in the source
Method: as §6, §7

[6] = test system: SHV-2 beta lactamase (Escherichia coli); format: biochemical
Chain of SHV-2 beta lactamase (Escherichia coli) (P0A9Z7 22-286): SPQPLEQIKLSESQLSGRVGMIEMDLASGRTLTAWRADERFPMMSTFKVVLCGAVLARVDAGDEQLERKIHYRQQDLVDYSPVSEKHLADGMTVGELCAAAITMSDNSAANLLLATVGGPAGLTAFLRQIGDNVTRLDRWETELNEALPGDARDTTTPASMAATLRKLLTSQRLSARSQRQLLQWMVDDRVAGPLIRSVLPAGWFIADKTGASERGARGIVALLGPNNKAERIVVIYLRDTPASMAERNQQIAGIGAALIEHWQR
Method: as §1, §2, §3, §4, §5

p99 beta lactamase = p99 beta lactamase (Enterobacter cloacae, UniProt P05364); format: biochemical
Chain of p99 beta lactamase (P05364 21-381): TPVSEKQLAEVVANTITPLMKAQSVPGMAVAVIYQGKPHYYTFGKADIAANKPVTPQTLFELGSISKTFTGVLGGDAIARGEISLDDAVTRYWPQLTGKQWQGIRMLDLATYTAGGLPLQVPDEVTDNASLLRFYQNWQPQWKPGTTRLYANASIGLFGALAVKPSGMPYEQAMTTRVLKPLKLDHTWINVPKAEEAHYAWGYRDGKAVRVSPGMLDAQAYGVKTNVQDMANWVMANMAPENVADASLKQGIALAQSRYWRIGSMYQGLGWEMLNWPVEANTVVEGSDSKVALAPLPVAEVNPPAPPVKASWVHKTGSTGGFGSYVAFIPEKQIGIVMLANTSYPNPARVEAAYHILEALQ
Method: as §1, §2, §3, §4, §5

SHV-2 beta lactamase = SHV-2 beta lactamase (Escherichia coli, UniProt P0A9Z7); format: biochemical
Chain of SHV-2 beta lactamase (P0A9Z7 22-286): as the sequence (P0A9Z7 22-286) above
Method: as §1, §2, §3, §4, §5

Chain of New Deli Metallo-beta lactamase (NDM-2) (C7C422 29-270 P28A (numbered from the first residue shown)): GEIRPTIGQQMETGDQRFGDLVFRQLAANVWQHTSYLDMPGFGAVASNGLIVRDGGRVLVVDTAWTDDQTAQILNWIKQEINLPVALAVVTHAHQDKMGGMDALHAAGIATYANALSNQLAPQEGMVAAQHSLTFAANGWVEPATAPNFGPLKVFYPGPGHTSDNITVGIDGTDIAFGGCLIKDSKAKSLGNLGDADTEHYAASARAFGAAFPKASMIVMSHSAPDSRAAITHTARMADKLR

For `O=C(O)[C@H]1/C(=C/CO)O[C@@H]2CC(=O)N21` [Clavulanate, clavulanate], the R-Factor [1] was 6.02, the “S/N (Signal to Noise Ratio) in inhibitor-containing reagent mix” value ([1]; 15 min) was 13.00 and the R-Factor ([1]; listed as clavulanate) was “high”. The R-Factor (TEM-2 beta lactamase; 64 micrograms/mL in 2× mix, lysate undiluted) was 1.18, the “S/N (Signal to Noise Ratio) in inhibitor-containing reagent mix” value (TEM-2 beta lactamase; 64 micrograms/mL in 2× mix, lysate undiluted, 15 min) was 5.00 and the “resistance of the beta lactamase to the substance” value (TEM-2 beta lactamase; judged from R-Factor) was “susceptible”. The R-Factor (KPC-2 beta lactamase) was 8.94, the “S/N (Signal to Noise Ratio) in inhibitor-containing reagent mix” value (KPC-2 beta lactamase; 15 min) was 40.00 and the R-Factor (KPC-2 beta lactamase; listed as clavulanate) was “high”. The Interpretation ([2]; No. 17, Sample ID 2015) was “susceptible to CA (CA (clavulanate) resistance cutoff R-Factor value: 2.50)”, the R-Factor ([2]; No. 17, Sample ID 2015) was 1.74 and the Interpretation ([2]; No. 18, Sample ID 2022-1) was “susceptible to CA (CA (clavulanate) resistance cutoff R-Factor value: 2.50)”. For the same compound, the R-Factor ([2]; No. 18, Sample ID 2022-1) was 1.31, the Interpretation ([3]; No. 3, Sample ID 1820) was “resistant to CA (CA (clavulanate) resistance cutoff R-Factor value: 2.50)” and the R-Factor ([3]; No. 3, Sample ID 1820) was 3.67. For the same compound, the Interpretation ([3]; No. 7, Sample ID 1789) was “susceptible to CA (CA (clavulanate) resistance cutoff R-Factor value: 2.50)”, the R-Factor ([3]; No. 7, Sample ID 1789) was 1.14 and the Interpretation ([3]; No. 8, Sample ID 1800) was “resistant to CA (CA (clavulanate) resistance cutoff R-Factor value: 2.50)”. For the same compound, the R-Factor ([3]; No. 8, Sample ID 1800) was 11.13, the Interpretation ([3]; No. 13, Sample ID 1962-2) was “resistant to CA (CA (clavulanate) resistance cutoff R-Factor value: 2.50)” and the R-Factor ([3]; No. 13, Sample ID 1962-2) was 15.47. The Interpretation ([3]; No. 14, Sample ID 1963) was “resistant to CA (CA (clavulanate) resistance cutoff R-Factor value: 2.50)”, the R-Factor ([3]; No. 14, Sample ID 1963) was 19.95 and the Interpretation ([4]; No. 1, Sample ID 1845) was “susceptible to CA (CA (clavulanate) resistance cutoff R-Factor value: 2.50)”. For the same compound, the R-Factor ([4]; No. 1, Sample ID 1845) was 0.07, the Interpretation ([4]; No. 2, Sample ID 1847) was “susceptible to CA (CA (clavulanate) resistance cutoff R-Factor value: 2.50)” and the R-Factor ([4]; No. 2, Sample ID 1847) was 0.15. For the same compound, the Interpretation ([4]; No. 20, Sample ID B650) was “susceptible to CA (CA (clavulanate) resistance cutoff R-Factor value: 2.50)”, the R-Factor ([4]; No. 20, Sample ID B650) was 0.11 and the Interpretation ([4]; No. 21, Sample ID B671) was “resistant to CA (CA (clavulanate) resistance cutoff R-Factor value: 2.50)”. For the same compound, the R-Factor ([4]; No. 21, Sample ID B671) was 4.12, the Interpretation ([5]; No. 5, Sample ID B612) was “susceptible to CA (CA (clavulanate) resistance cutoff R-Factor value: 2.50)” and the R-Factor ([5]; No. 5, Sample ID B612) was 0.27. The Interpretation ([5]; No. 6, Sample ID B616) was “susceptible to CA (CA (clavulanate) resistance cutoff R-Factor value: 2.50)”, the R-Factor ([5]; No. 6, Sample ID B616) was 0.13 and the R-Factor [6] was 0.23. For the same compound, the “S/N (Signal to Noise Ratio) in inhibitor-containing reagent mix” value (p99 beta lactamase) was 48.00, the “S/N (Signal to Noise Ratio) in inhibitor-containing reagent mix” value (SHV-2 beta lactamase) was 1.00 and the “resistance of the beta lactamase to the substance” value (SHV-2 beta lactamase) was “susceptible”.
